Data published in US9169260B2 (MERCK SHARP & DOHME CORP., priority 2011, dated 2015).

target: GST tagged IRAK-4 (Homo sapiens (Human), UniProt Q9NWZ3); experiment: IRAK-4 Kinase Assay (IMAP fluorescence polarization); type: biochemical; details: 100 μM ATP, 30 minutes at 25° C.
How it was run: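 Activity was read by IMAP fluorescence polarization, where phosphopeptide binding to M(III) nanoparticles raises FP. The 30-minute, 25° C reaction used 100 μM ATP, 100 nM RP7030 substrate and 0.5 nM GST-IRAK-4 in pH 7.2 Tris buffer with MgCl2, DTT and Tween 20.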

Sequence of GST tagged IRAK-4 (Q9NWZ3 whole entry): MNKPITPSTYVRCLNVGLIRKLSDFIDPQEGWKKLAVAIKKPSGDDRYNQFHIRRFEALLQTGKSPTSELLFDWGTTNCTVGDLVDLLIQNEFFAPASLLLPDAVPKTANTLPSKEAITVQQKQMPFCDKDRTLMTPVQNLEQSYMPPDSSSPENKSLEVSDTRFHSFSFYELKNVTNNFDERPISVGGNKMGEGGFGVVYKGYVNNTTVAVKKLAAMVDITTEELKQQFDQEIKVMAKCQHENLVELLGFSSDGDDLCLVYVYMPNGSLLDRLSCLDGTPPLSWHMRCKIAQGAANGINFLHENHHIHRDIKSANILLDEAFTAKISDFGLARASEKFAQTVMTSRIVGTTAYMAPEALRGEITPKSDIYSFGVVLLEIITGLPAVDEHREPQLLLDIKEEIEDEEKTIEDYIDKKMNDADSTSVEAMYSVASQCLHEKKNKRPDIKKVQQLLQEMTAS

Row | IC50 [µM] | SMILES
1 | < 0.1 | COCC(C)N1CCC(c2cc(NC(=O)c3cnn4cccnc34)n(-c3ccc(C)cc3)n2)CC1 (stereo not drawn) [Example 211, N-(3-(1-(1-methoxypropan-2-yl)piperidin-4-yl)-1-(p-tolyl)-1H-pyrazol-5-yl)pyrazolo[1,5-a]pyrimidine-3-carboxamide]
2 | > 0.1 | Cc1ccc(-n2nc(C3CCN(Cc4ccccc4)CC3)cc2NC(=O)c2cnn3cccnc23)cc1 [Example 218, N-[3-(1-benzylpiperidin-4-yl)-1-(4-methylphenyl)-1H-pyrazol-5-yl]pyrazolo[1,5-a]pyrimidine-3-carboxamide]
3 | < 0.1 | Cc1ccc(-n2nc(C3CCN(CC(C)C)CC3)cc2NC(=O)c2cnn3cccnc23)cc1 [Example 219, N-{1-(4-methylphenyl)-3-[1-(2-methylpropyl)piperidin-4-yl]-1H-pyrazol-5-yl}pyrazolo[1,5-a]pyrimidine-3-carboxamide]
4 | < 0.1 | CCCN1CCC(c2cc(NC(=O)c3cnn4cccnc34)n(-c3ccc(C)cc3)n2)CC1 [Example 220, N-[1-(4-methylphenyl)-3-(1-propylpiperidin-4-yl)-1H-pyrazol-5-yl]pyrazolo[1,5-a]pyrimidine-3-carboxamide]
5 | < 0.1 | Cc1ccc(-n2nc(C3CCN(CC4CC4)CC3)cc2NC(=O)c2cnn3cccnc23)cc1 [Example 221, N-{3-[1-(cyclopropylmethyl)piperidin-4-yl]-1-(4-methylphenyl)-1H-pyrazol-5-yl}pyrazolo[1,5-a]pyrimidine-3-carboxamide]
6 | < 0.1 | Cc1ccc(-n2nc(C3CCN(Cc4ccsc4)CC3)cc2NC(=O)c2cnn3cccnc23)cc1 [Example 223, N-{1-(4-methylphenyl)-3-[1-(thiophen-3-ylmethyl)piperidin-4-yl]-1H-pyrazol-5-yl}pyrazolo[1,5-a]pyrimidine-3-carboxamide]
7 | < 0.1 | Cc1ccc(-n2nc(C3CCN(Cc4ccccn4)CC3)cc2NC(=O)c2cnn3cccnc23)cc1 [Example 226, N-{1-(4-methylphenyl)-3-[1-(pyridin-2-ylmethyl)piperidin-4-yl]-1H-pyrazol-5-yl}pyrazolo[1,5-a]pyrimidine-3-carboxamide]
8 | < 0.1 | Cc1ccc(-n2nc(C3CCN(CC4CCOC4)CC3)cc2NC(=O)c2cnn3cccnc23)cc1 (stereo not drawn) [Example 228, N-{1-(4-methylphenyl)-3-[1-(tetrahydrofuran-3-ylmethyl)piperidin-4-yl]-1H-pyrazol-5-yl}pyrazolo[1,5-a]pyrimidine-3-carboxamide]
9 | < 0.1 | Cc1ccc(-n2nc(C3CCN(Cc4cncs4)CC3)cc2NC(=O)c2cnn3cccnc23)cc1 [Example 229, N-{1-(4-methylphenyl)-3-[1-(1,3-thiazol-5-ylmethyl)piperidin-4-yl]-1H-pyrazol-5-yl}pyrazolo[1,5-a]pyrimidine-3-carboxamide]
10 | < 0.1 | Cc1ccc(-n2nc(C3CCN(Cc4ccn[nH]4)CC3)cc2NC(=O)c2cnn3cccnc23)cc1 [Example 230, N-{1-(4-methylphenyl)-3-[1-(1H-pyrazol-5-ylmethyl)piperidin-4-yl]-1H-pyrazol-5-yl}pyrazolo[1,5-a]pyrimidine-3-carboxamide]
11 | < 0.1 | Cc1ccc(-n2nc(C3CCN(Cc4cscn4)CC3)cc2NC(=O)c2cnn3cccnc23)cc1 [Example 231, N-{1-(4-methylphenyl)-3-[1-(1,3-thiazol-4-ylmethyl)piperidin-4-yl]-1H-pyrazol-5-yl}pyrazolo[1,5-a]pyrimidine-3-carboxamide]
12 | < 0.1 | Cc1ccc(-n2nc(C3CCN(Cc4cn[nH]c4)CC3)cc2NC(=O)c2cnn3cccnc23)cc1 [Example 233, N-{1-(4-methylphenyl)-3-[1-(1H-pyrazol-4-ylmethyl)piperidin-4-yl]-1H-pyrazol-5-yl}pyrazolo[1,5-a]pyrimidine-3-carboxamide]

same assay, conditions: 100 μM ATP, 30 minutes at 25° C.; μM

Row | SMILES | IC50 [µM]
13 | Cc1ccc(-n2nc(C3CCN(C(C)c4ncccc4F)CC3)cc2NC(=O)c2cnn3cccnc23)cc1 (stereo not drawn) [Example 212, N-(3-(1-(1-(3-fluoropyridin-2-yl)ethyl)piperidin-4-yl)-1-(p-tolyl)-1H-pyrazol-5-yl)pyrazolo[1,5-a]pyrimidine-3-carboxamide] | < 1
14 | Cc1ccc(-n2nc(C3CCN(C(C)c4nccs4)CC3)cc2NC(=O)c2cnn3cccnc23)cc1 (stereo not drawn) [Example 217, N-[1-(4-methylphenyl)-3-{1-[1-(1,3-thiazol-2-yl)ethyl]piperidin-4-yl}-1H-pyrazol-5-yl]pyrazolo[1,5-a]pyrimidine-3-carboxamide] | < 1
15 | Cc1ccc(-n2nc(C3CCN(Cc4nccs4)CC3)cc2NC(=O)c2cnn3cccnc23)cc1 [Example 222, N-{1-(4-methylphenyl)-3-[1-(1,3-thiazol-2-ylmethyl)piperidin-4-yl]-1H-pyrazol-5-yl}pyrazolo[1,5-a]pyrimidine-3-carboxamide] | < 1
16 | Cc1ccc(-n2nc(C3CCN(Cc4ccncc4)CC3)cc2NC(=O)c2cnn3cccnc23)cc1 [Example 224, N-(3-(1-(pyridin-4-ylmethyl)piperidin-4-yl)-1-(p-tolyl)-1H-pyrazol-5-yl)pyrazolo[1,5-a]pyrimidine-3-carboxamide] | < 1
17 | Cc1ccc(-n2nc(C3CCN(Cc4cccnc4)CC3)cc2NC(=O)c2cnn3cccnc23)cc1 [Example 225, N-{1-(4-methylphenyl)-3-[1-(pyridin-3-ylmethyl)piperidin-4-yl]-1H-pyrazol-5-yl}pyrazolo[1,5-a]pyrimidine-3-carboxamide] | < 1
18 | Cc1ccc(-n2nc(C3CCN(Cc4ncco4)CC3)cc2NC(=O)c2cnn3cccnc23)cc1 [Example 232, N-{1-(4-methylphenyl)-3-[1-(1,3-oxazol-2-ylmethyl)piperidin-4-yl]-1H-pyrazol-5-yl}pyrazolo[1,5-a]pyrimidine-3-carboxamide] | < 1

Further lines, results first:

Row | IC50 [µM] | SMILES
19 | < 1 | Cc1ccc(-n2nc(C3CCN(C4CN(C(=O)NC(C)C)C4)CC3)cc2NC(=O)c2cnn3cccnc23)cc1 [Example 235, N-[3-(1-{1-[(1-methylethyl)carbamoyl]azetidin-3-yl}piperidin-4-yl)-1-(4-methylphenyl)-1H-pyrazol-5-yl]pyrazolo[1,5-a]pyrimidine-3-carboxamide]
20 | < 1 | Cc1ccc(-n2nc(C3CCN(C4CN(C(=O)NC(C)(C)C)C4)CC3)cc2NC(=O)c2cnn3cccnc23)cc1 [Example 236, N-[3-{1-[1-(tert-butylcarbamoyl)azetidin-3-yl]piperidin-4-yl]-1-(4-methylphenyl)-1H-pyrazol-5-yl}pyrazolo[1,5-a]pyrimidine-3-carboxamide]
21 | < 1 | CCNC(=O)N1CC(N2CCC(c3cc(NC(=O)c4cnn5cccnc45)n(-c4ccc(C)cc4)n3)CC2)C1 [Example 237, N-[3-{1-[1-(ethylcarbamoyl)azetidin-3-yl]piperidin-4-yl}-1-(4-methylphenyl)-1H-pyrazol-5-yl]pyrazolo[1,5-a]pyrimidine-3-carboxamide]
22 | < 1 | COC(=O)N1CC(N2CCC(c3cc(NC(=O)c4cnn5cccnc45)n(-c4ccc(C)cc4)n3)CC2)C1 [Example 238, methyl 3-(4-{1′-(4-methylphenyl)-5-[(pyrazolo[1,5-a]pyrimidin-3-ylcarbonyl)amino]-1H-pyrazol-3-yl}piperidin-1-yl)azetidine-1-carboxylate]
23 | < 1 | CCOC(=O)N1CC(N2CCC(c3cc(NC(=O)c4cnn5cccnc45)n(-c4ccc(C)cc4)n3)CC2)C1 [Example 239, ethyl 3-(4-{1-(4-methylphenyl)-5-[(pyrazolo[1,5-a]pyrimidin-3-ylcarbonyl)amino]-1H-pyrazol-3-yl}piperidin-1-yl)azetidine-1-carboxylate]
24 | < 1 | Cc1ccc(-n2nc(C3CCN(C4CN(C(=O)OC(C)C)C4)CC3)cc2NC(=O)c2cnn3cccnc23)cc1 [Example 240, 1-methylethyl 3-(4-{1-(4-methylphenyl)-5-[(pyrazolo[1,5-a]pyrimidin-3-ylcarbonyl)amino]-1H-pyrazol-3-yl}piperidin-1-yl)azetidine-1-carboxylate]
25 | < 1 | Cc1ccc(-n2nc(C3CCN(C4CN(C(=O)OCCF)C4)CC3)cc2NC(=O)c2cnn3cccnc23)cc1 [Example 241, 2-fluoroethyl 3-(4-{1-(4-methylphenyl)-5-[(pyrazolo[1,5-a]pyrimidin-3-ylcarbonyl)amino]-1H-pyrazol-3-yl}piperidin-1-yl)azetidine-1-carboxylate]
26 | < 1 | COCCOC(=O)N1CC(N2CCC(c3cc(NC(=O)c4cnn5cccnc45)n(-c4ccc(C)cc4)n3)CC2)C1 [Example 242, 2-methoxyethyl 3-(4-{1-(4-methylphenyl)-5-[(pyrazolo[1,5-a]pyrimidin-3-ylcarbonyl)amino]-1H-pyrazol-3-yl}piperidin-1-yl)azetidine-1-carboxylate]
27 | < 1 | CCS(=O)(=O)N1CC(N2CCC(c3cc(NC(=O)c4cnn5cccnc45)n(-c4ccc(C)cc4)n3)CC2)C1 [Example 243, N-[3-{1-[1-(ethylsulfonyl)azetidin-3-yl]piperidin-4-yl}-1-(4-methylphenyl)-1H-pyrazol-5-yl]pyrazolo[1,5-a]pyrimidine-3-carboxamide]
28 | < 1 | Cc1ccc(-n2nc(C3CCN(C4CN(S(C)(=O)=O)C4)CC3)cc2NC(=O)c2cnn3cccnc23)cc1 [Example 244, N-[1-(4-methylphenyl)-3-{1-[1-(methylsulfonyl)azetidin-3-yl]piperidin-4-yl}-1H-pyrazol-5-yl]pyrazolo[1,5-a]pyrimidine-3-carboxamide]
29 | < 1 | Cc1ccc(-n2nc(C3CCN(C4CN(S(=O)(=O)C5CC5)C4)CC3)cc2NC(=O)c2cnn3cccnc23)cc1 [Example 245, N-[3-{1-[1-(cyclopropylsulfonyl)azetidin-3-yl]piperidin-4-yl]-1-(4-methylphenyl)-1H-pyrazol-5-yl}pyrazolo[1,5-a]pyrimidine-3-carboxamide]
30 | < 1 | Cc1ccc(-n2nc(C3CCN(C4CN(S(=O)(=O)C(C)C)C4)CC3)cc2NC(=O)c2cnn3cccnc23)cc1 [Example 246, N-[3-(1-{1-[(1-methylethyl)sulfonyl]azetidin-3-yl}piperidin-4-yl)-1-(4-methylphenyl)-1H-pyrazol-5-yl]pyrazolo[1,5-a]pyrimidine-3-carboxamide]
